Measurements taken from patent US8846951B2 (AbbVie Inc., priority 2009, dated 2014).
Where two headings read alike, the source gives them in different places.

Experiments:
Type in all cases: cell-based
5HT2C receptors [1] = molecular target: T1, 5HT2C receptors (Homo sapiens, UniProt P28335); assay: Human 5-HT2C functional assay in 1321N1 cells (intracellular calcium, FLIPR); parameters: expressed in transfected cells; host or cells: 1321N1 cells; conditions: 5-HT2c agonist activity, maximum calcium response
T1 sequence (P28335 33-458): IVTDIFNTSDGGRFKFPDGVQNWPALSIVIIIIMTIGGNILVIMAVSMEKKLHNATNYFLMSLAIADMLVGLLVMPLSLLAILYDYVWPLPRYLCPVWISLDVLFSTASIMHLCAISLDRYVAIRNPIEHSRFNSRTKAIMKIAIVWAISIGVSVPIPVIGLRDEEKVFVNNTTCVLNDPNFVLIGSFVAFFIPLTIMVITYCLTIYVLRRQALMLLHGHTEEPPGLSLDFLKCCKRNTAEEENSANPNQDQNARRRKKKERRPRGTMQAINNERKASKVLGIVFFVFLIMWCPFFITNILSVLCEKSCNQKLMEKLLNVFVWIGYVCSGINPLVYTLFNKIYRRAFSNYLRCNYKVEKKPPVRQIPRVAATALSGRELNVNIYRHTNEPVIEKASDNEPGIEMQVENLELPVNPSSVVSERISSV
Procedure: (ii) Human 5-HT2C Functional Assay in 1321N1 Cells
Functional activity was determined by testing the effect of the compounds on intracellular calcium levels in 1321N1 cells stably transfected with the human 5-HT2C receptor. Cells were seeded into 96-well plates at 50,000 cells/well and grown overnight in tissue culture medium (DMEM with Glutamax I (Invitrogen), containing 10% dFCS, 50 μg/mL Gentamicin, 400 μg/mL Geneticin) at 37° C. and 7% CO2. Growth medium was replaced by medium without dFCS for overnight incubation. Cells were loaded with a fluorescent calcium-sensitive dye in the presence of 1% probenicid according to the manufacturer's protocol (Fluo4 AM, Molecular Devices). Serial compound dilutions (final concentrations 10^−10 to 10^−5 M) were added to the cells either alone or in the presence of serotonin (10^−9 M) and the maximum calcium response was determined using a FLIPR instrument (Molecular Devices). Concentration-response curves were fitted using a four-parameter logistic equation (GraphPad Prism). The concentration at which the compound exerts half its maximal effect is named the ‘effective concentration 50’ or ‘EC50’ and is listed in Table 2.

5HT2B receptors = molecular target: T2, 5HT2B receptors (Homo sapiens, UniProt P41595); assay: Human 5-HT2B functional high throughput screening assay in CHO-K1 cells (calcium flux); conditions: for Emax: 5-HT2B, maximum functional response as percentage relative to the effect of serotonin; for EC50: CHO-K1 cells, calcium flux
T2 construct: expressed in transfected cells; host or cells: CHO-K1 cells
T2 sequence (P41595 whole entry): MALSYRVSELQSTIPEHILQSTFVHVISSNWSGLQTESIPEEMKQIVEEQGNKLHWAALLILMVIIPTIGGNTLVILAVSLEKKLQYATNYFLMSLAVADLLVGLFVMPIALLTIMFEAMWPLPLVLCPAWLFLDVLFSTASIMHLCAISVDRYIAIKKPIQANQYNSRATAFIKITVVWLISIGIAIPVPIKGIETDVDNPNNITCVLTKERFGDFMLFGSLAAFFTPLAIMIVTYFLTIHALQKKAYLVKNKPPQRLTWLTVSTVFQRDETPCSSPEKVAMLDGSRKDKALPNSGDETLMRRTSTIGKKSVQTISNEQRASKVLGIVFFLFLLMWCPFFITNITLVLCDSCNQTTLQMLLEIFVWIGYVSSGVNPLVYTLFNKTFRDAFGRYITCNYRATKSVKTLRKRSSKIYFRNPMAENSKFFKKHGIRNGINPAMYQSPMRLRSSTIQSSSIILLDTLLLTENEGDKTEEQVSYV
In short: (§1)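 Agonism is measured as intracellular calcium increase in receptor-overexpressing CHO-K1 cells, read by FLIPR at 25 °C. Responses are expressed relative to serotonin, with EC50 and Emax derived from a 4-parameter logistic curve over 6 concentrations starting at 10 μM.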

5HT2C receptors [2] = molecular target: T1, 5HT2C receptors; assay: Human 5-HT2C functional high throughput screening assay in CHO-K1 cells (calcium flux); parameters: expressed in transfected cells; host or cells: CHO-K1 cells; conditions: for Emax: 5-HT2C, maximum functional response as percentage relative to the effect of serotonin; for EC50: CHO-K1 cells, calcium flux
In short: as §1

[3] = 5-HT2B agonist activity, read-out: EC50
[4] = 5-HT2C agonist activity, read-out: EC50

| Compound | EC50 (5HT2C receptors [1]) | Emax (5HT2B receptors) | EC50 (5HT2B receptors; [3]) | EC50 (5HT2C receptors [2]; [4]) | Emax (5HT2C receptors [2]; CHO-K1, read-out: Emax) | EC50 (5HT2B receptors; EC50, 5-HT2B agonist activity) | Emax (5HT2C receptors [2]; CHO-K1) | EC50 (5HT2C receptors [2]; EC50, 5-HT2C agonist activity) | Emax (5HT2C receptors [2]) |
| --- | --- | --- | --- | --- | --- | --- | --- | --- | --- |
| O=C1NC[C@@H]2CN(Cc3ccccc3)C[C@@H]2c2ccccc21 (relative stereo) [Example 3, Cis-2-benzyl-1,2,3,3a,4,5-hexahydrobenzo[c]pyrrolo[3,4-e]azepin-6(10bH)-one] | 101 nM | – | – | – | – | – | – | – | – |
| O=C1NC[C@@H]2CNC[C@@H]2c2ccccc21 (relative stereo) [Example 4, Cis-1,2,3,3a,4,5-hexahydrobenzo[c]pyrrolo[3,4-e]azepin-6(10bH)-one] | 202 nM | – | – | – | – | – | – | – | – |
| Cc1cc(C)cc(CN2C[C@H]3CNC(=O)c4ccccc4[C@@H]3C2)c1 (relative stereo) [Example 22, Trans-2-(3,5-dimethylbenzyl)-1,2,3,3a,4,5-hexahydrobenzo[c]pyrrolo[3,4-e]azepin-6(10bH)-one] | 5.22 nM | – | – | – | – | – | – | – | – |
| CN1C[C@@H]2CNC(=O)c3cc(OCC4CC4)ccc3[C@H]2C1 [Example 277, (3aS,10bS)-8-(Cyclopropylmethoxy)-2-methyl-1,2,3,3a,4,5-hexahydrobenzo[e]pyrrolo[3,4-c]azepin-6(10bH)-one] | – | inactive | – | – | – | > 10000 nM | 100% | 10 nM | – |
| CC(C)C(O)c1cccc(-c2ccc3c(c2)C(=O)NC[C@H]2CN(C)C[C@H]32)c1 (stereo partly drawn) [Example 304, (3aS,10bS)-8-[3-(1-Hydroxy-2-methylpropyl)phenyl]-2-methyl-2,3,3a,4,5,10b-hexahydropyrrolo[3,4-d][2]benzazepin-6(1H)-one] | – | inactive | > 10000 nM | 0.7 nM | 100% | – | – | – | – |
| CC(C)COc1ccc2c(c1)C(=O)NC[C@H]1CNC[C@H]21 [Example 308, (3aR-10bS)-8-Isobutoxy-2,3,3a,4,5,10b-hexahydropyrrolo[3,4-d][2]benzazepin-6(1H)-one] | – | inactive | – | – | – | > 10000 nM | 95% | 3 nM | – |
| CC(C)COc1ccc2c(c1)C(=O)NC[C@@H]1CNC[C@@H]21 [Example 309, (3aS,10bR)-8-Isobutoxy-2,3,3a,4,5,10b-hexahydropyrrolo[3,4-d][2]benzazepin-6(1H)-one] | – | inactive | – | – | – | > 10000 nM | 70% | – | – |
| CCC(O)c1cccc(-c2ccc3c(c2)C(=O)NC[C@H]2CN(C)C[C@H]32)c1 (stereo partly drawn) [Example 311, (3aS,10bS)-8-[3-(1-Hydroxypropyl)phenyl]-2-methyl-2,3,3a,4,5,10b-hexahydropyrrolo[3,4-d][2]benzazepin-6(1H)-one] | – | inactive | > 10000 nM | 0.8 nM | 95% | – | – | – | – |
| CC(C)CC(O)c1cccc(-c2ccc3c(c2)C(=O)NC[C@H]2CN(C)C[C@H]32)c1 (stereo partly drawn) [Example 312, (3aS,10bS)-8-[3-(1-Hydroxy-3-methylbutyl)phenyl]-2-methyl-2,3,3a,4,5,10b-hexahydropyrrolo[3,4-d][2]benzazepin-6(1H)-one] | – | inactive | > 10000 nM | 2 nM | 90% | – | – | – | – |
| CCCC(O)c1cccc(-c2ccc3c(c2)C(=O)NC[C@H]2CN(C)C[C@H]32)c1 (stereo partly drawn) [Example 313, (3aS,10bS)-8-[3-(1-Hydroxybutyl)phenyl]-2-methyl-2,3,3a,4,5,10b-hexahydropyrrolo[3,4-d][2]benzazepin-6(1H)-one] | – | inactive | > 10000 nM | 0.8 nM | 95% | – | – | – | – |
| COc1ccc(-c2ccc3c(c2)C(=O)NC[C@H]2CN(C)C[C@H]32)cn1 [Example 318, (3aS,10bS)-8-(6-Methoxypyridin-3-yl)-2-methyl-2,3,3a,4,5,10b-hexahydropyrrolo[3,4-d][2]benzazepin-6(1H)-one] | – | inactive | – | – | – | > 10000 nM | 90% | 10 nM | – |
| CN1C[C@@H]2CNC(=O)c3cc(-c4ccccn4)ccc3[C@H]2C1 [Example 388, (3aS,10bS)-2-Methyl-8-(pyridin-2-yl)-2,3,3a,4,5,10b-hexahydropyrrolo[3,4-d][2]benzazepin-6(1H)-one] | – | inactive | > 10000 nM | 300 nM | – | – | 90% | – | – |
| Trans-8-(2-methoxyphenethoxy)-2-methyl-1,2,3,3a,4,5-hexahydrobenzo[e]pyrrolo[3,4-c]azepin-6(10bH)-one [Example 183] | – | inactive | > 10000 nM | 40 nM | – | – | – | – | 65% |
| Trans-8-(3-chloro-1H-pyrrol-2-yl)-2-methyl-2,3,3a,4,5,10b-hexahydropyrrolo[3,4-d][2]benzazepin-6(1H)-one and Trans-8-(5-chloro-1H-pyrrol-2-yl)-2-methyl-2,3,3a,4,5,10b-hexahydropyrrolo[3,4-d][2]benzazepin-6(1H)-one [Example 386] | – | inactive | > 10000 nM | 20 nM | – | – | – | – | 65% |

Continued, in another order:

| EC50 (5HT2C receptors [1]) | Emax (5HT2B receptors) | EC50 (5HT2B receptors; [3]) | EC50 (5HT2C receptors [2]; [4]) | Emax (5HT2C receptors [2]; CHO-K1, read-out: Emax) | Compound | EC50 (5HT2B receptors; EC50, 5-HT2B agonist activity) | Emax (5HT2C receptors [2]; CHO-K1) | EC50 (5HT2C receptors [2]; EC50, 5-HT2C agonist activity) | Emax (5HT2C receptors [2]) |
| --- | --- | --- | --- | --- | --- | --- | --- | --- | --- |
| – | inactive | > 10000 nM | 2 nM | 120% | CC(=O)c1cccc(-c2ccc3c(c2)C(=O)NC[C@H]2CN(C)C[C@H]32)c1 [Example 278, (3aS,10bS)-8-(3-Acetylphenyl)-2-methyl-1,2,3,3a,4,5-hexahydrobenzo[e]pyrrolo[3,4-c]azepin-6(10bH)-one] | – | – | – | – |
| – | inactive | – | 2 nM | – | C[C@H](O)c1cccc(-c2ccc3c(c2)C(=O)NC[C@H]2CN(C)C[C@H]32)c1 [Example 293, (3aS,10bS)-8-{3-[(1S)-1-Hydroxyethyl]phenyl}-2-methyl-2,3,3a,4,5,10b-hexahydropyrrolo[3,4-d][2]benzazepin-6(1H)-one] | – | – | – | – |
| – | inactive | > 10000 nM | – | – | C[C@@H](O)c1cccc(-c2ccc3c(c2)C(=O)NC[C@H]2CN(C)C[C@H]32)c1 [Example 294, (3aS,10bS)-8-{3-[(1R)-1-hydroxyethyl]phenyl}-2-methyl-2,3,3a,4,5,10b-hexahydropyrrolo[3,4-d][2]benzazepin-6(1H)-one] | – | – | – | 100% |
| – | inactive | > 10000 nM | 10 nM | 90% | CN1C[C@@H]2CNC(=O)c3cc(-c4ccc5c(c4)C(=O)CC5)ccc3[C@H]2C1 [Example 306, (3aS,10bS)-2-Methyl-8-(3-oxo-2,3-dihydro-1H-inden-5-yl)-2,3,3a,4,5,10b-hexahydropyrrolo[3,4-d][2]benzazepin-6(1H)-one] | – | – | – | – |
| – | inactive | > 10000 nM | 0.7 nM | 100% | CN1C[C@@H]2CNC(=O)c3cc(-c4ccc5c(c4)C(O)CC5)ccc3[C@H]2C1 (stereo partly drawn) [Example 310, (3aS,10bS)-8-(3-Hydroxy-2,3-dihydro-1H-inden-5-yl)-2-methyl-2,3,3a,4,5,10b-hexahydropyrrolo[3,4-d][2]benzazepin-6(1H)-one] | – | – | – | – |
| – | inactive | > 10000 nM | 6 nM | 90% | COc1ccc(-c2ccc3c(c2)C(=O)NC[C@H]2CN(C)C[C@H]32)cc1Cl [Example 319, (3aS,10bS)-8-(3-Chloro-4-methoxyphenyl)-2-methyl-2,3,3a,4,5,10b-hexahydropyrrolo[3,4-d][2]benzazepin-6(1H)-one] | – | – | – | – |
| – | inactive | > 10000 nM | 2 nM | 90% | COc1ccc(-c2ccc3c(c2)C(=O)NC[C@H]2CN(C)C[C@H]32)c(F)c1 [Example 325, (3aS,10bS)-8-(2-Fluoro-4-methoxyphenyl)-2-methyl-2,3,3a,4,5,10b-hexahydropyrrolo[3,4-d][2]benzazepin-6(1H)-one] | – | – | – | – |
| – | inactive | > 10000 nM | 9 nM | 85% | COc1cc(F)ccc1-c1ccc2c(c1)C(=O)NC[C@H]1CN(C)C[C@H]21 [Example 326, (3aS,10bS)-8-(4-Fluoro-2-methoxyphenyl)-2-methyl-2,3,3a,4,5,10b-hexahydropyrrolo[3,4-d][2]benzazepin-6(1H)-one] | – | – | – | – |
